Where a name gives a salt, the structure may show the parent alone.

Results on two compounds are retold here after patent US6300344A, “Heterocyclic compounds” (Fujisawa Pharmaceutical Co., Ltd., priority 1995, dated 2001).

The test system of the assay is human platelet aggregation induced by ADP. Kind of assay: Inhibition of human platelet aggregation induced by ADP. The format is cell-based. The conditions noted are these: test compound 1.0 × 10^-7 M; human platelet rich plasma; ADP 2.5 μM final; 37° C.; mean ± S.E. The procedure:
Inhibition of human platelet aggregation induced by ADP
The citrate blood was centrifuged at 150 ×g for 10 minutes and the platelet rich plasma (PRP) was removed. The remaining blood was centrifuged for a further 10 minutes at 1500 ×g to prepare the platelet poor plasma (PPP), which was used as a reference for platelet aggregation. […] 25 μl of sample solution and 225 μl of PRP were mixed and stirred at 1000 rpm for 2 minutes at 37° C. Aggregation was induced by ADP solution at the final concentration of 2.5 μM.

What is called inhibition is the share of the control response that was lost under treatment. The low end stands for little suppression, the high end for strong suppression. The compound `O=C(O)COc1cccc2c1CCC[C@H]2N1CCC[C@@H]1c1nc(-c2ccccc2)c(-c2ccccc2)o1` [Test Compound (2), Sodium salt of (1R)-1-((2R)-2-(4,5-diphenyloxazol-2-yl)pyrrolidin-1-yl]-5-carboxymethoxy-1,2,3,4-tetrahydronaphthalene] had an inhibition at 0.1 µM of 85 ± 7.6%.
In turn, `O=C(O)COc1cccc(CC2CCCCC=C2c2nc(-c3ccccc3)c(-c3ccccc3)o2)c1` (centres unmarked) [Test Compound (1), Sodium [3-[[2-(4,5-diphenyloxazol-2-yl)-2-cyclohepten-1-yl]methyl]phenoxy]acetate] returned an inhibition at 0.1 µM of 88 ± 0.5%.
